# From patent publication US20040220205A1 (priority 2001, published 2004)
# Where “and” joins values, the source holds several entries; their conditions need not be identical. Equal entries are not always repeated. Structures can show the parent of a compound that is named as a salt.
# What was measured:
# [1] = test system: rats; assay: Behavioural experiment - injection into duodenum (with oral control); type: in vivo, rat; conditions: for duration of dopaminergic behavior: dur (total duration of action) / duration of dopaminergic behavior: intense stereotypy / duration of dopaminergic behavior: less intense stereotypy: rat, bolus injection into duodenum; for duration of dopaminergic behavior: intense stereotypy / duration of dopaminergic behavior: less intense stereotypy: period after injection
# From the text: These rats had been operated 1-14 days before the experiment. A plastic tubing was introduced entering through the duodenum wall at about the mid section and bent in such a way that it had its duct directed downwards (i.e. aiming downstream towards the jejunum and being about 2 cm long). An experienced scientist observed the animals for the entire period of pharmacological activity, scoring the behavior and emphasizing the following details:
# yawning, sniffing, chewing, licking, rearing, grooming, penile grooming, locomotor activity and stereotypy. The total duration of action where one or several of these behaviors were present was scored.
# [2] = test system: dopamine release (striatum); assay: Microdialysis experiment (striatum) with one entero-coated tablet; type: in vivo; conditions: rat striatum microdialysis
# Method: One entero-coated tablet prepared as described in Example 1 and containing about 5 mg of NPA hydrochloride was administered to a rat in the way described in Pharmacological Experiment 2 and a standard microdialysis was carried out.
# Pharmacological Experiment 2 was repeated but using an entero-coated tablet containing about 5 mg of mono-pivaloyl-apomorphine base instead of NPA hydrochloride.
# (§1) Pharmacological Experiment 2 was repeated but using an enterocoated tablet prepared as described in Example 3 containing about 1 mg of mono-pivaloyl-N-propyl-noraporphine (MPNPA) base instead of NPA hydrochloride.
# [3] = test system: rat; assay: Behavioural experiment - entero-coated pill; type: in vivo
# Method: One entero-coated tablet prepared as described in Example 1 and containing about 5 mg of NPA hydrochloride was placed under anesthesia (isoflurane) in the throat of a rat and pushed down the throat with a blunt instrument. Within five minutes, the rat was awake and exploring the cage. After about 3 to 4 hours, the rat began to show dopaminergic stimulatory signs like sniffing, chewing, penile licking, grooming and stereotypy with rearing, locomotor activity, intense sniffing and also licking. This stereotypy lasted for more than 24 hours.
# as §1
# [4] = earlier reports on symmetric di-esters of aporphines; cited from earlier work
# [5] = control experiment, administered orally to the same rat, 4 mg/kg
# [6] = one entero-coated tablet containing about 5 mg NPA hydrochloride
# [7] = one entero-coated tablet containing about 5 mg, pushed down the throat
# [8] = one entero-coated tablet containing about 5 mg mono-pivaloyl-apomorphine base
compound,measurement,setting,value
"CN1CCc2cccc3c2[C@H]1Cc1ccc(O)c(O)c1-3 [Apomorphine Hydrochloride, apomorphine hydrochloride]",dopaminergic stimulation observed,[1]; [5],Very weak dopaminergic stimulation
same,time period in which dopaminergic effects were observed,[1]; [5],10 to 20 min
same,duration of dopaminergic behavior: dur (total duration of action),[1]; 4.0 mg/kg,90 min
same,duration of dopaminergic behavior: intense stereotypy,[1]; 4.0 mg/kg,intense stereotypy (5-75); less intense min
same,duration of dopaminergic behavior: less intense stereotypy,[1]; 4.0 mg/kg,75 to 85 min
same,duration of dopaminergic behavior: dur (total duration of action),"[1]; 5.0 mg/kg, hydrochloride",95 min and 60 min
same,duration of dopaminergic behavior: less intense stereotypy,"[1]; 5.0 mg/kg, hydrochloride, 5 mg/kg",40 to 90 min and 45 to 55 min
"CCCN1CCc2cccc3c2C1Cc1ccc(O)c(OC(=O)C(C)(C)C)c1-3 (stereo not drawn) [MPNPA, mono-pivaloyl-N-propyl-noraporphine]",period of continuous decrease of dopamine release,[2]; one entero-coated tablet containing about 1 mg MPNPA base,between one hour and four hours
same,dopamine release,"[2]; one entero-coated tablet containing about 1 mg MPNPA base, at 18 hours after application of the pill",80 % of controls
same,"dopamine release, maximal decrease","[2]; one entero-coated tablet containing about 1 mg MPNPA base, at four hours",30 % of controls
same,period of intense stereotypy,"[3]; one entero-coated tablet containing about 1 mg MPNPA base, observed during the microdialysis experiment",between four hours and eight hours
"CCCN1CCc2cccc3c2[C@H]1Cc1ccc(O)c(O)c1-3 [NPA hydrochloride, 6aR-(-)-N-propyl-norapomorphine]","dopamine release, maximal decrease",[2]; [6],about 20% of control values
same,time of maximal decrease in dopamine release,[2]; [6],after about four hours
same,duration of maximal decrease in dopamine release,"[2]; one entero-coated tablet containing about 5 mg NPA hydrochloride, until the experiment was stopped",lasting for several hours
same,duration of stereotypy,[3]; [7],more than 24 hours
same,time until dopaminergic stimulatory signs began,[3]; [7],3 to 4 h
"CCCN1CCc2cccc3c2[C@H]1Cc1ccc(O)c(O)c1-3 [NPA, 6aR-(-)-N-propyl-norapomorphine]",duration of dopaminergic behavior: dur (total duration of action),[1]; 5.0 mg/kg,> 540 min
"CN1CCc2cccc3c2C1Cc1ccc(OC(=O)C(C)(C)C)c(OC(=O)C(C)(C)C)c1-3 (stereo not drawn) [di-pivaloyl ester, di-pivaloyl esters of apomorphine]",activity compared with parent compound apomorphine,[4],much less active
monopivaloyl-apomorphine [Mono-Piv-Apo],dopamine release at maximal decrease,[2]; [8],80 % of control values
same,maximal decrease of dopamine release,[2]; [8],20%
same,time after which dopamine release decreases,[2]; [8],about 60 minutes
same,time until dopamine release is back to control values,[2]; [8],after about eight hours
same,duration of dopaminergic behavior: dur (total duration of action),[1]; 4.6 mg/kg,120 min
same,duration of dopaminergic behavior: intense stereotypy,[1]; 4.6 mg/kg,intense stereotypy (5-105); less intense min
same,duration of dopaminergic behavior: less intense stereotypy,[1]; 4.6 mg/kg,105 to 115 min
same,duration of dopaminergic behavior: dur (total duration of action),[1]; 5.9 mg/kg,135 min and 120 min
same,duration of dopaminergic behavior: less intense stereotypy,"[1]; 5.9 mg/kg, 5.9 mg/kg",105 to 130 min and 80 to 90 min
